Data published in PubChem BioAssay (NCI).
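A five-concentration, 48-hour dose response in 96-well plates underlies each endpoint, interpolated linearly between surrounding concentrations. GI50 is the concentration that inhibits growth by half. TGI marks complete inhibition of growth.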

Legend:
Experiment in all cases: NCI tumour cell line growth inhibition, 48 h
786-0 renal = system: 786-0 renal
A498 renal = system: A498 renal
A549 NSCLC = system: A549 NSCLC
ACHN renal = system: ACHN renal
BT-549 breast = system: BT-549 breast
CAKI-1 renal = system: CAKI-1 renal
CCRF-CEM leukemia = system: CCRF-CEM leukemia
COLO 205 colon = system: COLO 205 colon
DU-145 prostate = system: DU-145 prostate
EKVX NSCLC = system: EKVX NSCLC
HCC-2998 colon = system: HCC-2998 colon
HCT-116 colon = system: HCT-116 colon
HCT-15 colon = system: HCT-15 colon
HL-60(TB) leukemia = system: HL-60(TB) leukemia
HOP-62 NSCLC = system: HOP-62 NSCLC
HOP-92 NSCLC = system: HOP-92 NSCLC
HS 578T breast = system: HS 578T breast
HT29 colon = system: HT29 colon
IGROV1 ovarian = system: IGROV1 ovarian
K-562 leukemia = system: K-562 leukemia
KM12 colon = system: KM12 colon
LOX IMVI melanoma = system: LOX IMVI melanoma
M14 melanoma = system: M14 melanoma
MALME-3M melanoma = system: MALME-3M melanoma
MDA-MB-231 breast = system: MDA-MB-231 breast
MDA-MB-435 = system: MDA-MB-435
MDA-N = system: MDA-N
MOLT-4 leukemia = system: MOLT-4 leukemia
NCI-H226 lung = system: NCI-H226 lung
NCI-H23 lung = system: NCI-H23 lung
NCI-H460 lung = system: NCI-H460 lung
NCI-H522 lung = system: NCI-H522 lung
NCI/ADR-RES ovarian = system: NCI/ADR-RES ovarian
OVCAR-3 ovarian = system: OVCAR-3 ovarian
OVCAR-4 ovarian = system: OVCAR-4 ovarian
OVCAR-5 ovarian = system: OVCAR-5 ovarian
OVCAR-8 ovarian = system: OVCAR-8 ovarian
PC-3 prostate = system: PC-3 prostate
RPMI-8226 leukemia = system: RPMI-8226 leukemia
RXF 393 renal = system: RXF 393 renal
SF-268 CNS = system: SF-268 CNS
SF-295 CNS = system: SF-295 CNS
SF-539 CNS = system: SF-539 CNS
SK-MEL-2 melanoma = system: SK-MEL-2 melanoma
SK-MEL-28 melanoma = system: SK-MEL-28 melanoma
SK-MEL-5 melanoma = system: SK-MEL-5 melanoma
SK-OV-3 ovarian = system: SK-OV-3 ovarian
SN12C renal = system: SN12C renal
SNB-19 CNS = system: SNB-19 CNS
SNB-75 CNS = system: SNB-75 CNS
SR leukemia = system: SR leukemia
SW-620 colon = system: SW-620 colon
T-47D breast = system: T-47D breast
TK-10 renal = system: TK-10 renal
U251 CNS = system: U251 CNS
UACC-257 melanoma = system: UACC-257 melanoma
UACC-62 melanoma = system: UACC-62 melanoma
UO-31 renal = system: UO-31 renal
MCF7 breast = system: MCF7 breast

Compound `c1ccc2c(c1)cc1ccc3cccc4ccc2c1c34` has a TGI (786-0 renal) greater than 100 µM, a GI50 (A498 renal) greater than 100 µM and a TGI (A498 renal) greater than 100 µM. It also gave a TGI (A549 NSCLC) greater than 100 µM, a TGI (ACHN renal) greater than 100 µM and a TGI (BT-549 breast) greater than 100 µM. For the same compound, the TGI (CAKI-1 renal) was greater than 100 µM, the TGI (CCRF-CEM leukemia) was greater than 100 µM and the TGI (COLO 205 colon) was greater than 100 µM. The TGI (DU-145 prostate) was greater than 100 µM, the TGI (EKVX NSCLC) was greater than 100 µM and the TGI (HCC-2998 colon) was greater than 100 µM. It also gave a TGI (HCT-116 colon) greater than 100 µM, a TGI (HCT-15 colon) greater than 100 µM and a TGI (HL-60(TB) leukemia) greater than 100 µM. The TGI (HOP-62 NSCLC) was greater than 100 µM, the TGI (HOP-92 NSCLC) was greater than 100 µM and the TGI (HS 578T breast) was greater than 100 µM. For the same compound, the TGI (HT29 colon) was greater than 100 µM, the TGI (IGROV1 ovarian) was greater than 100 µM and the TGI (K-562 leukemia) was greater than 100 µM. It also gave a TGI (KM12 colon) greater than 100 µM, a TGI (LOX IMVI melanoma) greater than 100 µM and a TGI (M14 melanoma) greater than 100 µM. It also gave a GI50 (MALME-3M melanoma) greater than 100 µM, a TGI (MALME-3M melanoma) greater than 100 µM and a TGI (MDA-MB-231 breast) greater than 100 µM. The TGI (MDA-MB-435) was greater than 100 µM, the TGI (MDA-N) was greater than 100 µM and the TGI (MOLT-4 leukemia) was greater than 100 µM. For the same compound, the TGI (NCI-H226 lung) was greater than 100 µM, the TGI (NCI-H23 lung) was greater than 100 µM and the TGI (NCI-H460 lung) was greater than 100 µM. The TGI (NCI-H522 lung) was greater than 100 µM, the TGI (NCI/ADR-RES ovarian) was greater than 100 µM and the TGI (OVCAR-3 ovarian) was greater than 100 µM. It also gave a GI50 (OVCAR-4 ovarian) greater than 100 µM, a TGI (OVCAR-4 ovarian) greater than 100 µM and a GI50 (OVCAR-5 ovarian) greater than 100 µM. For the same compound, the TGI (OVCAR-5 ovarian) was greater than 100 µM, the TGI (OVCAR-8 ovarian) was greater than 100 µM and the TGI (PC-3 prostate) was greater than 100 µM. For the same compound, the TGI (RPMI-8226 leukemia) was greater than 100 µM, the TGI (RXF 393 renal) was greater than 100 µM and the TGI (SF-268 CNS) was greater than 100 µM. For the same compound, the TGI (SF-295 CNS) was greater than 100 µM, the TGI (SF-539 CNS) was greater than 100 µM and the TGI (SK-MEL-2 melanoma) was greater than 100 µM. It also gave a TGI (SK-MEL-28 melanoma) greater than 100 µM, a TGI (SK-MEL-5 melanoma) greater than 100 µM and a TGI (SK-OV-3 ovarian) greater than 100 µM. It also gave a TGI (SN12C renal) greater than 100 µM, a TGI (SNB-19 CNS) greater than 100 µM and a TGI (SNB-75 CNS) greater than 100 µM. It also gave a TGI (SR leukemia) greater than 100 µM, a TGI (SW-620 colon) greater than 100 µM and a TGI (T-47D breast) greater than 100 µM. The TGI (TK-10 renal) was greater than 100 µM, the TGI (U251 CNS) was greater than 100 µM and the TGI (UACC-257 melanoma) was greater than 100 µM. For the same compound, the TGI (UACC-62 melanoma) was greater than 100 µM and the TGI (UO-31 renal) was greater than 100 µM.

For `CC(C)c1ccc(NC(=O)Cc2ccc(Nc3ncnc4cc(-c5cnn(CCN(C)C)c5)ccc34)cc2)cc1`, the GI50 (786-0 renal) was 1.63 µM, the TGI (786-0 renal) was 3.96 µM and the GI50 (A498 renal) was 0.128 µM. For the same compound, the TGI (A498 renal) was greater than 10 µM, the GI50 (A549 NSCLC) was 1.2 µM and the TGI (A549 NSCLC) was 4.15 µM. It also gave a GI50 (ACHN renal) of 2.45 µM, a TGI (ACHN renal) greater than 10 µM and a GI50 (BT-549 breast) of 3.96 µM. It also gave a TGI (BT-549 breast) greater than 10 µM, a GI50 (CAKI-1 renal) of 1.18 µM and a TGI (CAKI-1 renal) of 2.88 µM. For the same compound, the GI50 (CCRF-CEM leukemia) was 0.0522 µM, the TGI (CCRF-CEM leukemia) was 4.68 µM and the GI50 (COLO 205 colon) was 0.218 µM. It also gave a TGI (COLO 205 colon) of 1.83 µM, a GI50 (DU-145 prostate) of 1.46 µM and a TGI (DU-145 prostate) of 2.83 µM. The GI50 (EKVX NSCLC) was 2.42 µM, the TGI (EKVX NSCLC) was 9.23 µM and the GI50 (HCC-2998 colon) was 1.66 µM. It also gave a TGI (HCC-2998 colon) of 3.42 µM, a GI50 (HCT-116 colon) of 1.19 µM and a TGI (HCT-116 colon) of 2.7 µM. The GI50 (HCT-15 colon) was 1.55 µM, the TGI (HCT-15 colon) was 4.08 µM and the GI50 (HL-60(TB) leukemia) was 2.84 µM. It also gave a TGI (HL-60(TB) leukemia) greater than 10 µM, a GI50 (HOP-62 NSCLC) greater than 10 µM and a TGI (HOP-62 NSCLC) greater than 10 µM. It also gave a GI50 (HOP-92 NSCLC) of 3.44 µM, a TGI (HOP-92 NSCLC) greater than 10 µM and a GI50 (HS 578T breast) of 0.795 µM. For the same compound, the TGI (HS 578T breast) was 4.66 µM, the GI50 (HT29 colon) was 1.4 µM and the TGI (HT29 colon) was 3.49 µM. It also gave a GI50 (IGROV1 ovarian) of 1.48 µM, a TGI (IGROV1 ovarian) of 3.64 µM and a GI50 (K-562 leukemia) of 2.12 µM. For the same compound, the TGI (K-562 leukemia) was 5.94 µM, the GI50 (KM12 colon) was 0.0641 µM and the TGI (KM12 colon) was 1.39 µM. The GI50 (LOX IMVI melanoma) was 1.36 µM, the TGI (LOX IMVI melanoma) was 3.37 µM and the GI50 (M14 melanoma) was 1.28 µM. It also gave a TGI (M14 melanoma) of 2.97 µM, a GI50 (MALME-3M melanoma) greater than 10 µM and a TGI (MALME-3M melanoma) greater than 10 µM. It also gave a GI50 (MCF7 breast) of 1.06 µM, a TGI (MCF7 breast) of 3.04 µM and a GI50 (MDA-MB-231 breast) of 1.44 µM. The TGI (MDA-MB-231 breast) was 3.14 µM, the GI50 (MDA-MB-435) was 2.34 µM and the TGI (MDA-MB-435) was greater than 10 µM. It also gave a GI50 (MOLT-4 leukemia) of 1.43 µM, a TGI (MOLT-4 leukemia) of 4.73 µM and a GI50 (NCI-H226 lung) greater than 10 µM. For the same compound, the TGI (NCI-H226 lung) was greater than 10 µM, the GI50 (NCI-H23 lung) was 4.14 µM and the TGI (NCI-H23 lung) was greater than 10 µM. For the same compound, the GI50 (NCI-H460 lung) was 0.19 µM, the TGI (NCI-H460 lung) was 2.33 µM and the GI50 (NCI-H522 lung) was 1.56 µM. The TGI (NCI-H522 lung) was 3.94 µM, the GI50 (NCI/ADR-RES ovarian) was greater than 10 µM and the TGI (NCI/ADR-RES ovarian) was greater than 10 µM. It also gave a GI50 (OVCAR-3 ovarian) of 1.44 µM, a TGI (OVCAR-3 ovarian) of 2.94 µM and a GI50 (OVCAR-4 ovarian) of 1.51 µM. It also gave a TGI (OVCAR-4 ovarian) of 3.05 µM, a GI50 (OVCAR-5 ovarian) of 1.44 µM and a TGI (OVCAR-5 ovarian) of 3.28 µM. For the same compound, the GI50 (OVCAR-8 ovarian) was 1.29 µM, the TGI (OVCAR-8 ovarian) was 3.54 µM and the GI50 (PC-3 prostate) was 1.31 µM. For the same compound, the TGI (PC-3 prostate) was 2.92 µM, the GI50 (RPMI-8226 leukemia) was 1.95 µM and the TGI (RPMI-8226 leukemia) was 4.75 µM. The GI50 (RXF 393 renal) was 1.3 µM, the TGI (RXF 393 renal) was 3.43 µM and the GI50 (SF-268 CNS) was 1.32 µM. For the same compound, the TGI (SF-268 CNS) was 3.09 µM, the GI50 (SF-295 CNS) was 2.47 µM and the TGI (SF-295 CNS) was greater than 10 µM. The GI50 (SF-539 CNS) was 0.571 µM, the TGI (SF-539 CNS) was 2.39 µM and the GI50 (SK-MEL-2 melanoma) was greater than 10 µM. It also gave a TGI (SK-MEL-2 melanoma) greater than 10 µM, a GI50 (SK-MEL-28 melanoma) greater than 10 µM and a TGI (SK-MEL-28 melanoma) greater than 10 µM. It also gave a GI50 (SK-MEL-5 melanoma) greater than 10 µM, a TGI (SK-MEL-5 melanoma) greater than 10 µM and a GI50 (SK-OV-3 ovarian) of 1.61 µM. For the same compound, the TGI (SK-OV-3 ovarian) was 4.81 µM, the GI50 (SN12C renal) was 1.34 µM and the TGI (SN12C renal) was 3.05 µM. For the same compound, the GI50 (SNB-19 CNS) was 1.27 µM, the TGI (SNB-19 CNS) was 3.39 µM and the GI50 (SNB-75 CNS) was 0.162 µM. The TGI (SNB-75 CNS) was 2.03 µM, the GI50 (SR leukemia) was 0.107 µM and the TGI (SR leukemia) was 2.42 µM. It also gave a GI50 (SW-620 colon) of 1.18 µM, a TGI (SW-620 colon) of 2.76 µM and a GI50 (T-47D breast) of 1.38 µM. It also gave a TGI (T-47D breast) of 3.73 µM, a GI50 (TK-10 renal) of 1.72 µM and a TGI (TK-10 renal) of 3.79 µM. The GI50 (U251 CNS) was 1.7 µM, the TGI (U251 CNS) was 4.5 µM and the GI50 (UACC-257 melanoma) was greater than 10 µM. It also gave a TGI (UACC-257 melanoma) greater than 10 µM, a GI50 (UACC-62 melanoma) greater than 10 µM and a TGI (UACC-62 melanoma) greater than 10 µM. For the same compound, the GI50 (UO-31 renal) was 3.02 µM and the TGI (UO-31 renal) was greater than 10 µM.
